Results from PubChem BioAssay (NCI).
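Following 48 hours of exposure in 96-well plates, responses at five concentrations were used to interpolate endpoints linearly. The concentration for 50% growth inhibition is given as GI50. TGI denotes the concentration required for complete inhibition of growth.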

How the values were obtained:
Assay in all cases: NCI anticancer screen, dose series, 48 h
786-0 renal = test system: 786-0 renal
HCC-2998 colon = test system: HCC-2998 colon
NCI-H460 lung = test system: NCI-H460 lung
HL-60(TB) leukemia = test system: HL-60(TB) leukemia
HT29 colon = test system: HT29 colon
OVCAR-5 ovarian = test system: OVCAR-5 ovarian
OVCAR-4 ovarian = test system: OVCAR-4 ovarian
OVCAR-3 ovarian = test system: OVCAR-3 ovarian
SW-620 colon = test system: SW-620 colon
NCI-H226 lung = test system: NCI-H226 lung
HOP-62 NSCLC = test system: HOP-62 NSCLC
NCI/ADR-RES ovarian = test system: NCI/ADR-RES ovarian
MALME-3M melanoma = test system: MALME-3M melanoma
SK-MEL-5 melanoma = test system: SK-MEL-5 melanoma
PC-3 prostate = test system: PC-3 prostate
U251 CNS = test system: U251 CNS
UACC-257 melanoma = test system: UACC-257 melanoma
A549 NSCLC = test system: A549 NSCLC
MDA-MB-435 = test system: MDA-MB-435
KM12 colon = test system: KM12 colon
SR leukemia = test system: SR leukemia
MDA-MB-468 breast = test system: MDA-MB-468 breast
IGROV1 ovarian = test system: IGROV1 ovarian
SN12C renal = test system: SN12C renal
SK-OV-3 ovarian = test system: SK-OV-3 ovarian
MCF7 breast = test system: MCF7 breast
T-47D breast = test system: T-47D breast
HOP-92 NSCLC = test system: HOP-92 NSCLC
NCI-H522 lung = test system: NCI-H522 lung
SF-268 CNS = test system: SF-268 CNS
SF-295 CNS = test system: SF-295 CNS
OVCAR-8 ovarian = test system: OVCAR-8 ovarian
COLO 205 colon = test system: COLO 205 colon
HCT-116 colon = test system: HCT-116 colon
TK-10 renal = test system: TK-10 renal
EKVX NSCLC = test system: EKVX NSCLC
CCRF-CEM leukemia = test system: CCRF-CEM leukemia
RXF 393 renal = test system: RXF 393 renal
BT-549 breast = test system: BT-549 breast
NCI-H23 lung = test system: NCI-H23 lung
HCT-15 colon = test system: HCT-15 colon
MOLT-4 leukemia = test system: MOLT-4 leukemia
UACC-62 melanoma = test system: UACC-62 melanoma
DU-145 prostate = test system: DU-145 prostate
SNB-19 CNS = test system: SNB-19 CNS
A498 renal = test system: A498 renal
SK-MEL-28 melanoma = test system: SK-MEL-28 melanoma
LOX IMVI melanoma = test system: LOX IMVI melanoma
ACHN renal = test system: ACHN renal
CAKI-1 renal = test system: CAKI-1 renal
RPMI-8226 leukemia = test system: RPMI-8226 leukemia
SF-539 CNS = test system: SF-539 CNS
K-562 leukemia = test system: K-562 leukemia
M14 melanoma = test system: M14 melanoma
HS 578T breast = test system: HS 578T breast

`CS(=O)(=O)Nc1ccc(-c2ccc3c(c2)ncn3-c2ccc(NC(=O)Nc3ccc(Cl)c(C(F)(F)F)c3)cc2)cc1` was tested, and the GI50 (786-0 renal) was 1.87 µM, the TGI (786-0 renal) was 4.42 µM and the GI50 (HCC-2998 colon) was 4.32 µM. The TGI (HCC-2998 colon) was 14.7 µM, the GI50 (NCI-H460 lung) was 2.64 µM and the TGI (NCI-H460 lung) was 9.49 µM. It also gave a GI50 (HL-60(TB) leukemia) of 1.79 µM, a TGI (HL-60(TB) leukemia) of 4.02 µM and a GI50 (HT29 colon) of 2.95 µM. It also gave a TGI (HT29 colon) of 10.8 µM, a GI50 (OVCAR-5 ovarian) of 3.03 µM and a TGI (OVCAR-5 ovarian) of 11.1 µM. The GI50 (OVCAR-4 ovarian) was 4.05 µM, the TGI (OVCAR-4 ovarian) was 21.1 µM and the GI50 (OVCAR-3 ovarian) was 3.17 µM. The TGI (OVCAR-3 ovarian) was 10.6 µM, the GI50 (SW-620 colon) was 2.97 µM and the TGI (SW-620 colon) was 12.8 µM. The GI50 (NCI-H226 lung) was 3.05 µM, the TGI (NCI-H226 lung) was 11.8 µM and the GI50 (HOP-62 NSCLC) was 2.06 µM. For the same compound, the TGI (HOP-62 NSCLC) was 4.96 µM, the GI50 (NCI/ADR-RES ovarian) was 5.19 µM and the TGI (NCI/ADR-RES ovarian) was 24.8 µM. It also gave a GI50 (MALME-3M melanoma) of 2.1 µM, a TGI (MALME-3M melanoma) of 5.58 µM and a GI50 (SK-MEL-5 melanoma) of 1.85 µM. For the same compound, the TGI (SK-MEL-5 melanoma) was 3.87 µM, the GI50 (PC-3 prostate) was 2.81 µM and the TGI (PC-3 prostate) was 10.3 µM. It also gave a GI50 (U251 CNS) of 2.49 µM, a TGI (U251 CNS) of 10.8 µM and a GI50 (UACC-257 melanoma) of 2.43 µM. The TGI (UACC-257 melanoma) was 6.85 µM, the GI50 (A549 NSCLC) was 3 µM and the TGI (A549 NSCLC) was 10.8 µM. The GI50 (MDA-MB-435) was 2.97 µM, the TGI (MDA-MB-435) was 12.4 µM and the GI50 (KM12 colon) was 0.38 µM. For the same compound, the TGI (KM12 colon) was 9.59 µM, the GI50 (SR leukemia) was 1.61 µM and the TGI (SR leukemia) was 3.71 µM. The GI50 (MDA-MB-468 breast) was 2.43 µM, the TGI (MDA-MB-468 breast) was 7.78 µM and the GI50 (IGROV1 ovarian) was 3.24 µM. For the same compound, the TGI (IGROV1 ovarian) was 11.5 µM, the GI50 (SN12C renal) was 2.99 µM and the TGI (SN12C renal) was 11.2 µM. It also gave a GI50 (SK-OV-3 ovarian) of 2.84 µM, a TGI (SK-OV-3 ovarian) of 9.55 µM and a GI50 (MCF7 breast) of 1.86 µM. The TGI (MCF7 breast) was 5.04 µM, the GI50 (T-47D breast) was 2.69 µM and the TGI (T-47D breast) was 12.2 µM. It also gave a GI50 (HOP-92 NSCLC) of 3.41 µM, a TGI (HOP-92 NSCLC) of 8.67 µM and a GI50 (NCI-H522 lung) of 2.33 µM. It also gave a TGI (NCI-H522 lung) of 8.12 µM, a GI50 (SF-268 CNS) of 3.42 µM and a TGI (SF-268 CNS) of 15.4 µM. For the same compound, the GI50 (SF-295 CNS) was 1.54 µM, the TGI (SF-295 CNS) was 3.21 µM and the GI50 (OVCAR-8 ovarian) was 2.38 µM. It also gave a TGI (OVCAR-8 ovarian) of 6.87 µM, a GI50 (COLO 205 colon) of 2.05 µM and a TGI (COLO 205 colon) of 5.15 µM. It also gave a GI50 (HCT-116 colon) of 2.9 µM, a TGI (HCT-116 colon) of 9.97 µM and a GI50 (TK-10 renal) of 3.83 µM. The TGI (TK-10 renal) was 13.5 µM, the GI50 (EKVX NSCLC) was 2.89 µM and the TGI (EKVX NSCLC) was 10.2 µM. The GI50 (CCRF-CEM leukemia) was 2.72 µM, the TGI (CCRF-CEM leukemia) was 8.84 µM and the GI50 (RXF 393 renal) was 1.05 µM. For the same compound, the TGI (RXF 393 renal) was 3.83 µM, the GI50 (BT-549 breast) was 2.99 µM and the TGI (BT-549 breast) was 7.17 µM. It also gave a GI50 (NCI-H23 lung) of 2.42 µM, a TGI (NCI-H23 lung) of 7.92 µM and a GI50 (HCT-15 colon) of 2.73 µM. It also gave a TGI (HCT-15 colon) of 10.1 µM, a GI50 (MOLT-4 leukemia) of 1.72 µM and a TGI (MOLT-4 leukemia) of 5.05 µM. For the same compound, the GI50 (UACC-62 melanoma) was 1.91 µM, the TGI (UACC-62 melanoma) was 4.23 µM and the GI50 (DU-145 prostate) was 3.84 µM. For the same compound, the TGI (DU-145 prostate) was 17.1 µM, the GI50 (SNB-19 CNS) was 3.23 µM and the TGI (SNB-19 CNS) was 12 µM. For the same compound, the GI50 (A498 renal) was 2.42 µM, the TGI (A498 renal) was 7.41 µM and the GI50 (SK-MEL-28 melanoma) was 2.53 µM. The TGI (SK-MEL-28 melanoma) was 10.3 µM, the GI50 (LOX IMVI melanoma) was 2.63 µM and the TGI (LOX IMVI melanoma) was 7.31 µM. The GI50 (ACHN renal) was 2.72 µM, the TGI (ACHN renal) was 9.66 µM and the GI50 (CAKI-1 renal) was 4.73 µM. For the same compound, the TGI (CAKI-1 renal) was 20.9 µM, the GI50 (RPMI-8226 leukemia) was 1.9 µM and the TGI (RPMI-8226 leukemia) was 5.16 µM. For the same compound, the GI50 (SF-539 CNS) was 1.56 µM, the TGI (SF-539 CNS) was 6.52 µM and the GI50 (K-562 leukemia) was 1.95 µM. It also gave a TGI (K-562 leukemia) of 5.48 µM, a GI50 (M14 melanoma) of 2.38 µM and a TGI (M14 melanoma) of 9.11 µM. For the same compound, the GI50 (HS 578T breast) was 2.14 µM and the TGI (HS 578T breast) was 6.46 µM.
